Holding throughout (assay type): physicochemical
The nature of series [1]: Tap density of mesalamine powder by USP tapped density test <616>. The conditions noted are these: for Mesalamine Tap Density: mesalamine lot used for the molten mixture, Table 9; for Tapped Density: mesalamine powder lot, Table 8; for TD (measured tapped density): individual mesalamine lot used in combination, Table 10. On the procedure: Unless otherwise specified, tap density is measured by the USP tapped density test <616>.
The individual tap densities of each mesalamine lot were used to calculate a composite tapped density (CTD) based on the amount of each lot. The calculated CTD can be expressed by the following equation: (CDF)i+(CDF)2 + . . . (CDF)n=CTD where CTD=composite tapped density: CDF=contributed density factor=% of total drug used/100×TD; TD=measured tapped density; and n=number of drug lots used.

Series [2] in a line: Viscosity of molten mixture of mesalamine and hard fat. The conditions noted are these: molten mixture prepared from the mesalamine lot, Table 11.
Test in series [3]: as above
The settings on record: in-process molten mixture of mesalamine and hard fat. On the procedure:
Molten mixtures were prepared by the procedure described in Example 1 using mesalamine lots A, B, and E, The molten mixtures had the viscosities reported in Table 9 below.
The in-process molten mixtures of mesalamine and hard fat used in the preparation of the suppositories described above with respect to FIGS. 4 to 6 had the viscosities reported in Table 12 below. Suppositories could not be made from Grades C and D from supplier 2.

As to `Nc1ccc(O)c(C(=O)O)c1` [Mesalamine Lot A, mesalamine], in series [1] (listed as A), the “Mesalamine Tap Density” value amounted to 0.81 g/mL and the “Tapped Density” value is 0.81 g/mL.

Take `Nc1ccc(O)c(C(=O)O)c1` [Mesalamine Lot B, mesalamine]: in series [1] (listed as B), the “Mesalamine Tap Density” value is 0.72 g/mL and the “Tapped Density” value is 0.72 g/mL.

Take `Nc1ccc(O)c(C(=O)O)c1` [Mesalamine Lot C, mesalamine]: in series [1] (listed as C), the “TD (measured tapped density)” value came to 0.68 g/mL and the “Tapped Density” value was 0.68 g/mL.

As for `Nc1ccc(O)c(C(=O)O)c1` [Mesalamine Lot D, mesalamine], in series [1] (listed as D), the “TD (measured tapped density)” value came out at 0.37 g/mL and the “Tapped Density” value was 0.39 g/mL.

As for `Nc1ccc(O)c(C(=O)O)c1` [Mesalamine Lot E, mesalamine], in series [1] (listed as E), the “TD (measured tapped density)” value turned out to be 0.68 g/mL, the “Mesalamine Tap Density” value stood at 0.68 g/mL and the “Tapped Density” value is 0.68 g/mL.

On to `Nc1ccc(O)c(C(=O)O)c1` [Mesalamine Lot F, mesalamine], for which, in series [1] (listed as F), the “TD (measured tapped density)” value turned out to be 0.46 g/mL and the “Tapped Density” value is 0.46 g/mL.

Take `Nc1ccc(O)c(C(=O)O)c1` [Mesalamine Lot G, mesalamine]: in series [1] (listed as G), the “TD (measured tapped density)” value amounted to 0.60 g/mL and the “Tapped Density” value came out at 0.60 g/mL.

In the case of `Nc1ccc(O)c(C(=O)O)c1` [Mesalamine Lot No. 7, mesalamine], in series [1] (mesalamine lot nos. 1-8, Table 11, listed as 7), the “Tap Density” value was 0.36 g/mL. In series [2] (listed as 7), the Viscosity was determined as 37830 cps.

In the case of `Nc1ccc(O)c(C(=O)O)c1` [Mesalamine Lot No. 8, mesalamine], the “Tap Density” value in series [1] (mesalamine lot nos. 1-8, Table 11, listed as 8) is 0.37 g/mL. Further, the Viscosity in series [2] (listed as 8) worked out at 33735 cps.

As to `Nc1ccc(O)c(C(=O)O)c1` [Supplier 1, mesalamine], the “Dispersion Viscosity” value worked out at 694 Cps in series [3] (Drug Load 33% w/w), 1131 Cps in series [3] (Drug Load 37% w/w) and 2512 Cps in series [3] (Drug Load 42% w/w).

As to `Nc1ccc(O)c(C(=O)O)c1` [Supplier 2, grade A, mesalamine], the “Dispersion Viscosity” value in series [3] (Drug Load 33% w/w) is 595 Cps; in series [3] (Drug Load 37% w/w), 1084 Cps; in series [3] (Drug Load 42% w/w), 2553 Cps.

On to `Nc1ccc(O)c(C(=O)O)c1` [Supplier 2, grade B, mesalamine], for which the “Dispersion Viscosity” value in series [3] (Drug Load 33% w/w) is 515 Cps; in series [3] (Drug Load 37% w/w), 845 Cps; in series [3] (Drug Load 42% w/w), 1911 Cps.

On to `Nc1ccc(O)c(C(=O)O)c1` [Supplier 2, grade C, mesalamine], for which, in series [1] (mesalamine by source, Table 12), the “Tap Density” value is 0.00058 g/mL. Moreover, in series [3] (Drug Load 33% w/w), the “Dispersion Viscosity” value is listed as “Too Viscous”.

Consider `Nc1ccc(O)c(C(=O)O)c1` [Supplier 2, grade D, mesalamine], for which the “Dispersion Viscosity” value in series [3] (Drug Load 33% w/w) is listed as “Poor”.
